Results published in patent publication US9708370B2, “Azapeptides as CD36 binding compounds” (VALORISATION-RECHERCHE, LIMITED PARTNERSHIP, priority 2007, dated 2017).
Read-outs that look alike come from different tables or passages of the source. Starred links: 1 amine or outer side, 2 acyl side, 3 side chain; linkers in the order of their positions; H or OH if unused. Non-standard residues stand in square brackets, D forms with d. Residues, ends and D or L forms follow the SMILES beside them. azaTyr = O=C(N(Cc1ccc(O)cc1)N[*:1])[*:2]; X3 = O=C(N(Cc1cccc2ccccc12)N[*:1])[*:2]; azaPhe = O=C(N(Cc1ccccc1)N[*:1])[*:2]; azaLeu = CC(C)CN(N[*:1])C(=O)[*:2]; azaGly = NNC(=O)O

Tests used:
[1] = biological target: CD36 (Rattus norvegicus (Rat), UniProt Q07969); assay: CD36 receptor covalent photolabelling binding assay, competition with [125I]Tyr-Bpa-Ala-hexarelin on rat cardiac membranes; details: for binding activity/affinity at CD36 in words: compared with parent peptide GHRP-6 or hexarelin
Description: The hearts from Sprague Dawley rats (300 g-325 g) from Charles River, used as a source of cardiac membranes, were prepared as follows: the heart was washed with ice-cold saline, and fatty and connective tissue was removed. The tissue was cut into small pieces with scissors and placed in a Sorvall centrifuge tube containing 5 ml/g of fresh tissue of Buffer A (10 mM NaHCO3, 5 mM NaN3, 10 μM Pefabloc, 0.1 μM Aprotinin, 1 μM Pepstatin A, 1 μM Leupeptin, pH 7.0). The suspension was homogenized with a Polytron at low speed, 3×15 sec. The homogenate was centrifuged at 8 700×g for 20 min and the supernatant was put on ice. The pellet was resuspended and homogenized with a Glass-teflon Potter by 5 strokes. The homogenate was centrifuged at 8 700×g for 10 min and this supernatant was combined with the first supernatant. The supernatant fluid was centrifuged at 35 000×g for 20 min, yielding a second pellet fraction that was suspended thoroughly in a glass homogenizer with a Teflon pestle in 20 ml/g of fresh tissue of Buffer B (20 mM Tris-maleate, 0.6M KCl, pH 6.8). The resulting suspension was centrifuged again at 35 000×g for 60 min. The third pellet fraction was resuspended thoroughly in a glass homogenizer with a Teflon pestle in 20 ml/g of fresh tissue of Buffer C (10 mM Tris/HCl buffer pH 7.4) followed with another centrifugation at 35 000×g for 60 min. The harvested precipitate was then suspended in a small volume (1-2 ml/g of fresh tissue) of 50 mM Tris/HCl buffer pH 7.4) containing 2 mM EGTA. The resulting membrane preparation was frozen at −80° C. Protein concentration was determined with bicinchoninic acid (BCA) method, using BSA as standard.
The iodination procedure was performed in the darkness. […] The reaction was started by adding 5 ul (3 nmol) of H2O2. The incubation was carried out at 22° C. for 5 min. The addition of H2O2 was repeated twice with 5 min incubation each time. The reaction was stopped with the addition of 1.4 ml of 0.1% TFA. The iodinated peptide was purified on a reverse-phase Vydac C18 column with a 60 min linear gradient (1 ml/min) from 20% to 50% acetonitrile (90%) in 0.1% TFA (10%).
Nonspecific binding was defined as binding not displaced by 50 μM corresponding peptide. All peptide containing solutions were diluted in Buffer B. Buffer A and B were degassed under vacuum, and used in capped tubes in order to minimize lipid peroxydation. Before the incubation period, all tubes were put under a low flow of nitrogen. All material was kept on ice and the binding assay was performed in darkness. After an incubation period of 60 min at 22° C. […] After centrifugation at 12 000×g for 15 minutes, the pellets were resuspended in 150 μl of sample buffer (62 mM Tris-HCl, pH 6.8, 2% SDS, 10% glycerol, 15% 2-mercapto-ethanol, and 0.05% bromophenol blue), and boiled for 5 min prior to being subjected to electrophoresis. Proteins (200 μg/100 μl) were separated on 7.5% SDS-PAGE (45 V overnight). The gels resulting from SDS/PAGE were fixed, colored in Coomassie Brilliant Blue R-250, dried, exposed to a storage phosphor intensifying screen (Amersham Biosciences), and analysed by using a Typhoon PhosphorImager (Amersham Biosciences) and ImageQuant 5.0 software to establish competition curves. Protein bands were quantified by densitometry. The covalent binding signal of 87 kDa was analyzed by densitometry using Typhoon Phospholmager™ (Typhoon, Amersham Biosciences) and ImageQuant 5.0® software to set competition curves.
Specific binding activities were defined as the ratio of the density of the protein band to that of a non-specific band. Results are expressed as the percentage of the density of the […] to that of the total binding band.

[2] = biological target: human GHS-R1a (Homo sapiens (Human), UniProt Q92847); assay: GHS-R1a binding assay, competition with 125I-ghrelin on membranes of LLC-PK1 cells expressing human GHS-R1a; details: for IC50: Table 5, read-out: IC50 Binding GHS-R1a; for binding affinity for GHS-R1a receptor in words: compared with GHRP-6
Description: Rat ghrelin was radio iodinated with Na^125I using the lodo-Beads iodination reagent (Pierce #28665). Briefly, an lodo-bead was incubated with 2 mCi of Na^125I (Amersham) in 100 μL of 50 mM sodium phosphate buffer, pH 7.0 for 5 min at 22° C. The reaction was started by adding 20 nmol of the peptide (1 mM in 0.1 M acetic acid). The tube was incubated for 10 min at 22° C. The iodination was terminated by adding 1 mL of 0.1% TFA. The mono-iodinated peptide was purified by reverse-phase HPLC using a Vydac C18 ([…]) column (30 cm×0.39 cm) in combination with a binary elution system of (A) 0.1% TFA in H2O and (B) 0.1% TFA, 10% H2O, 90% acetonitrile. Fractions of 0.5 mL were collected and analyzed by its radioactive content.
Cells (1.4×10^6) were plated in 100 mm plates and transfected 24 h later with pCDNA3.1-hGHS-R1a (UMR cDNA Resource Center #GHSR0A0000) following the CaHPO4 precipitation method. Briefly, 40 μg of plasmid DNA was diluted in 500 μL of sterile H2O and added to an equal volume of a 4× CaCl2, pH 7.9 solution (2 mM Tris-HCl, 0.2 mM EDTA, 500 mM CaCl2). The mixture was then added slowly with air bubbles to 1 mL of 2× Hepes-buffered saline, pH 7.1 (50 mM Hepes, 280 mM NaCl, 1.5 mM Na2HPO4). After 30 min at room temperature, 1 mL was distributed evenly over the cells and let overnight. The medium was changed the next morning and the membrane preparation was made two days later.
Cells were washed twice with PBS and once with ice-cold homogenization buffer (50 mM Tris-HCl, pH 7.3, 5 mM MgCl2, 2.5 mM EDTA, 30 μg/ml bacitracin). Cells were scraped and harvested in 1.5 mL tubes. Cells were then lysed by temperature shock with two freeze/thaw cycles in liquid nitrogen. The tubes were centrifuged at 14000 g for 20 min. Pellets were resuspended in homogenization buffer and stored at −80° C. until used. Total protein concentrations were determined with the BCA protein assay kit (Pierce).
Competition experiments were performed by incubating 50 μg of LLC-PK1 membranes expressing human GHS-R1a with 15 fmol of ^125I-Ghrelin and increasing concentrations of unlabeled ghrelin or with increasing concentrations of azapeptides derivatives in 0.5 mL of binding buffer. Bound radiolabelled ligand was separated from free by filtration on Whatman GF/C filters pretreated with a 1% polyethylenimine solution. Filters were washed with 2×3 mL of washing buffer (50 mM Tris-HCl, pH 7.3, 10 mM MgCl2, 2.5 mM EDTA, 0.015% Triton X-100). Filters were counted in a LKB gamma counter. Curves were analyzed using Prism software (GraphPad Software Inc).

[3] = Table 6, read-out: IC50 Binding CD36
[4] = Table 3, rat cardiac membranes, [125I]Tyr-Bpa-Ala-hexarelin as radioligand, read-out: IC50, binding affinity of aza peptide derivatives towards CD36

Chain of CD36 (Q07969 whole entry): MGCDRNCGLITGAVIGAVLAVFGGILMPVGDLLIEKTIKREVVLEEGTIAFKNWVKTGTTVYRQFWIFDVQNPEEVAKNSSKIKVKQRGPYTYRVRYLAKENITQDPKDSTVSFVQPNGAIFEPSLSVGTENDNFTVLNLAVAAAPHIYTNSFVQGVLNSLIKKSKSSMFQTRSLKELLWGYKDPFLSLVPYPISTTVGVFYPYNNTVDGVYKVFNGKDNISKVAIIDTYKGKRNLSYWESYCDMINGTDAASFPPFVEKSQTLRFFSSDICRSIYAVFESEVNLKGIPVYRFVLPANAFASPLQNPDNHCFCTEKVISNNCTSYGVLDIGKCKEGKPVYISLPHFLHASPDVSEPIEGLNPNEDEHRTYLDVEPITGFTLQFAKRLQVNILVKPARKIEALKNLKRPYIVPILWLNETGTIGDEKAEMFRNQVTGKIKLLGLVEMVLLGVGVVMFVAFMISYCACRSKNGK
Chain of human GHS-R1a (Q92847 whole entry): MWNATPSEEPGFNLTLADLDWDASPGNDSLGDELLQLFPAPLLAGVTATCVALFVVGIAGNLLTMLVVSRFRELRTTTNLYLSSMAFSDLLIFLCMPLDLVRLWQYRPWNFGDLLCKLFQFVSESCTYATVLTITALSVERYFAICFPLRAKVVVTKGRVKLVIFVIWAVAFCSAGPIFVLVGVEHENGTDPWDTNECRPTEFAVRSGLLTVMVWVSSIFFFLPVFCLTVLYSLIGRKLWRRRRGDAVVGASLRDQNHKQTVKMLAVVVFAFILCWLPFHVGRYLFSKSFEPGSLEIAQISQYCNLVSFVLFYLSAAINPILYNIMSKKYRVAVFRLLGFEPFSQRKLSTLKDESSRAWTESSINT

Structure (SMILES) | IC50 [1, 3] [µM] | IC50 [2] [µM] | binding activity/affinity at CD36 in words [1] | also measured
C[C@H](NC(=O)[C@@H](Cc1ccccc1)NC(=O)[C@H](Cc1c[nH]c2ccccc12)NC(=O)[C@H](C)NC(=O)N(Cc1ccccc1)NC(=O)[C@@H](N)Cc1cnc[nH]1)C(N)=O [CP-1A (i), His-azaPhe-Ala-Trp-D-Phe-Ala-NH2] (H-H[azaPhe]AW[dF]A-NH2) | > 10 | 51 |  | IC50 ([2]; listed as CP-1A(i)): > 10 µM
C[C@H](NC(=O)[C@H](C)NC(=O)N(Cc1ccccc1)NC(=O)[C@@H](N)Cc1cnc[nH]1)C(=O)N[C@H](Cc1ccccc1)C(=O)N[C@@H](CCCCN)C(N)=O [CP-1A (iii), (D/L)His-azaPhe-Ala-Ala-D-Phe-Lys-NH2] (H-H[azaPhe]AA[dF]K-NH2) | 27.6 | > 10 |  | 
C[C@H](NC(=O)[C@@H](Cc1ccccc1)NC(=O)[C@H](Cc1c[nH]c2ccccc12)NC(=O)[C@H](C)NC(=O)N(Cc1ccc(O)cc1)NC(=O)[C@@H](N)Cc1cnc[nH]1)C(N)=O [CP-1B (i), His-AzaTyr-Ala-Trp-D-Phe-Ala-NH2] (H-H[azaTyr]AW[dF]A-NH2) | 72.2 | > 10 |  | 
C[C@H](NC(=O)N(Cc1ccc(O)cc1)NC(=O)[C@@H](N)Cc1cnc[nH]1)C(=O)N[C@@H](Cc1c[nH]c2ccccc12)C(=O)N[C@H](C)C(=O)N[C@@H](CCCCN)C(N)=O [CP-1B (ii), His-azaTyr-Ala-Trp-D-Ala-Lys-NH2] (H-H[azaTyr]AW[dA]K-NH2) | > 10 | > 10 |  | 
C[C@H](N)C(=O)N[C@H](Cc1c[nH]c2ccccc12)C(=O)NNC(=O)N[C@@H](Cc1c[nH]c2ccccc12)C(=O)N[C@H](Cc1ccccc1)C(=O)N[C@@H](CCCCN)C(N)=O [CP-2A(v), Ala-D-Trp-azaGly-Trp-D-Phe-Lys-NH2] (H-A[dW][azaGly]W[dF]K-NH2) | 8.76 |  |  | 
CC(C)CN(NC(=O)[C@@H](Cc1c[nH]c2ccccc12)NC(=O)[C@H](C)N)C(=O)N[C@@H](Cc1c[nH]c2ccccc12)C(=O)N[C@H](Cc1ccccc1)C(=O)N[C@@H](CCCCN)C(N)=O [CP-2B (v), Ala-D-Trp-azaLeu-Trp-D-Phe-Lys-NH2] (H-A[dW][azaLeu]W[dF]K-NH2) | 3.68 |  | retained significant activity similar to the parent peptide | binding activity/affinity at CD36 in words ([1]; listed as CP-2B(v)): without major change; binding affinity for GHS-R1a receptor in words [2]: decreased drastically
NCCCC[C@H](NC(=O)[C@@H](Cc1ccccc1)NC(=O)[C@H](Cc1c[nH]c2ccccc12)NC(=O)NNC(=O)[C@@H](Cc1c[nH]c2ccccc12)NC(=O)[C@@H](N)Cc1cnc[nH]1)C(N)=O [DBG188p, His-D-Trp-azaGly-Trp-D-Phe-Lys-NH2] (H-H[dW][azaGly]W[dF]K-NH2) |  |  | retained significant activity similar to the parent peptide | IC50 [1, 4]: 9.61 µM
C[C@H](NC(=O)N(Cc1cccc2ccccc12)NC(=O)[C@@H](N)Cc1cnc[nH]1)C(=O)N[C@@H](Cc1c[nH]c2ccccc12)C(=O)N[C@H](Cc1ccccc1)C(=O)N[C@@H](CCCCN)C(N)=O [DBG253-10, His-azaNal-1-Ala-Trp-D-Phe-Lys-NH2] (H-H[X3]AW[dF]K-NH2) |  |  |  | IC50 [1, 4]: 1930 µM

The next lines start with results.

IC50 [1, 3] [µM] | IC50 [2] [µM] | Structure (SMILES) | binding activity/affinity at CD36 in words [1] | also measured
5.02 | > 10 | C[C@H](N)C(=O)NN(Cc1ccccc1)C(=O)N[C@@H](C)C(=O)N[C@@H](Cc1c[nH]c2ccccc12)C(=O)N[C@H](Cc1ccccc1)C(=O)N[C@@H](CCCCN)C(N)=O [CP-1A (iv), Ala-azaPhe-Ala-Trp-D-Phe-Lys-NH2] (H-A[azaPhe]AW[dF]K-NH2) | without major change | binding affinity for GHS-R1a receptor in words [2]: decreased drastically
17.4 | > 10 | C[C@H](N)C(=O)NN(Cc1ccc(O)cc1)C(=O)N[C@@H](C)C(=O)N[C@@H](Cc1c[nH]c2ccccc12)C(=O)N[C@H](Cc1ccccc1)C(=O)N[C@@H](CCCCN)C(N)=O [CP-1B (iv), Ala-AzaTyr-Ala-Trp-D-Phe-Lys-NH2] (H-A[azaTyr]AW[dF]K-NH2) |  | 
9.02 | 8.17 | CC(C)CN(NC(=O)[C@@H](Cc1c[nH]c2ccccc12)NC(=O)[C@@H](N)Cc1cnc[nH]1)C(=O)N[C@@H](Cc1c[nH]c2ccccc12)C(=O)N[C@H](Cc1ccccc1)C(=O)N[C@@H](C)C(N)=O [CP-2B (i), His-D-Trp-azaLeu-Trp-D-Phe-Ala-NH2] (H-H[dW][azaLeu]W[dF]A-NH2) | retained significant activity similar to the parent peptide | 
4.94 | > 10 | CC(C)CN(NC(=O)[C@@H](Cc1c[nH]c2ccccc12)NC(=O)[C@@H](N)Cc1cnc[nH]1)C(=O)N[C@@H](Cc1c[nH]c2ccccc12)C(=O)N[C@H](C)C(=O)N[C@@H](CCCCN)C(N)=O [CP-2B (ii), His-D-Trp-azaLeu-Trp-D-Ala-Lys-NH2] (H-H[dW][azaLeu]W[dA]K-NH2) | retained significant activity similar to the parent peptide | binding activity/affinity at CD36 in words ([1]; listed as CP-2B(ii)): without major change; binding affinity for GHS-R1a receptor in words [2]: decreased drastically
9.66 | > 10 | CC(C)CN(NC(=O)[C@@H](Cc1c[nH]c2ccccc12)NC(=O)[C@@H](N)Cc1cnc[nH]1)C(=O)N[C@@H](C)C(=O)N[C@H](Cc1ccccc1)C(=O)N[C@@H](CCCCN)C(N)=O [CP-2B (iii), His-D-Trp-azaLeu-Ala-D-Phe-Lys-NH2] (H-H[dW][azaLeu]A[dF]K-NH2) | retained significant activity similar to the parent peptide | 
